Tested on: PKM2
Experiment: [18F]DASA-23 cellular uptake as measure of PKM2 expression in U87 GBM cells
Format: cell-based, Human
Protocol: [18F]DASA-23 can be used to detect changes in GBM metabolism in response to TMZ and TTFields therapies. In one experiment, Human U87 GBM cells were subjected to 200 kHz TTFields, the IC50 of TMZ, or vehicle for three or six days (n≥3/condition), followed by evaluation of [18F]DASA-23 uptake (e.g., FIGS. 2 and 6). Immunofluorescence for PKM2 was performed to confirm the [18F]DASA-23 uptake results. (e.g., FIG. 9). Western blot analysis was performed to determine the effect of TMZ and TTFields exposure on the expression of PKM2. 2-way ANOVA with multiple comparisons was performed. (e.g., FIG. 8). Data are reported as mean±SD.
The ability of [18F]DASA-23 to detect changes in metabolism in response to TMZ and TTFields therapies, in cell culture and an orthotopic murine model of human GBM (FIG. 6) was evaluated. There was a significant interaction between the treatment (vehicle, TMZ, or TTFields) and treatment duration (3 or 6 days) on PKM2 expression as measured by cellular uptake of [18F]DASA-23 (p=0.005, 2-way ANOVA) (FIG. 6).

[1] = U87 cells, after exposure to TTFields, over 60 minutes, FIG. 7

SMILES: Cn1nnc2c(C(N)=O)ncn2c1=O [TMZ, Temozolomide]
- reduction of PKM2 expression (U87 glioblastoma cells, over a 30 minute period, after treatment with chemotherapy (TMZ), FIG. 6): at least 10%

SMILES: COc1ccc(S(=O)(=O)N2CCN(S(=O)(=O)c3c(F)cccc3[18F])CC2)cc1 [[18F]DASA-23, 1-((2-fluoro-6-[18F]fluorophenyl)sulfonyl)-4-((4-methoxyphenyl)sulfonyl)piperazine]
- reduction of [18F]DASA-23 uptake (U87 cells, after exposure to TTFields, over 30 minutes, FIG. 7): at least 5%
- reduction of [18F]DASA-23 retention [1]: at least 20%
- reduction of [18F]DASA-23 uptake [1]: at least 10%

— patent publication US20210199640A1, “Methods of Normalizing Aberrant Glycolytic Metabolism in Cancer Cells” (The Board of Trustees of the Leland Stanford Junior …, priority 2019, published 2021)
